Article PMC10464103, “Antibacterial peptide PMAP-37(F34-R), expressed in Pichia pastoris, is effective against pathogenic bacteria and preserves plums” (Microbial Cell Factories, 2023)
Peptide text beside a SMILES is read from it.

Columns and labels:
[1] = system: S. aureus, Listeria monocytogenes, B. subtilis, Salmonella typhimurium, E. coli O157, E. coli; experiment: Inhibition zone method; type: cell-based; conditions: inhibition zone in LB agar; three Gram-positive and three Gram-negative bacteria; positive control 50 µg/mL gentamicin
Protocol: (§1) The inhibition zone method was performed as described in a previous study with slight modifications. Fifty microliters of the bacterial solution was mixed with 15 mL lysogeny broth, and the inhibition zone of the six bacteria was determined by drilling after coagulation. The stability of PMAP-37(F34-R) against S. aureus was determined using the inhibition zone method. 4 µg/mL PMAP-37(F-34R) was dissolved in buffers with different pH (2, 4, 6, 8, and 10), different proteases (papain, pepsin, trypsin, and protease K), and different temperatures (4, 25, 37, 65, and 90 °C). The stability profiles under various pH, proteases, and temperatures were determined. Untreated buffer was used as a negative control.

S. aureus [2] = experiment: Stability at different temperatures and pH, read out by inhibition zone; type: physicochemical; conditions: 4 µg/mL peptide, antibacterial activity against S. aureus by inhibition zone
Protocol: as §1

[3] = design: method as in PMID 31858653; conditions: compared with antibiotic; cited from earlier work
S. aureus [4] = experiment: Total nucleotide leakage; type: cell-based; conditions: within 30 min after treatment; 37 °C, PBS; OD 260 nm of supernatant
Protocol: The total nucleotide leakage experiment was performed according to a previously reported method with slight modifications. S. aureus was collected, washed twice, and resuspended in PBS to an OD600 of 0.8. Antimicrobial peptides were added and incubated at 37 °C for various durations. The bacterial solution was centrifuged to remove S. aureus. The OD of the supernatant was recorded at a wavelength of 260 nm.

S. aureus [5] = experiment: Membrane permeability, PI staining; type: cell-based; conditions: 37 °C, 30 min with peptide, then PI; fluorescence microscope
Protocol: The permeability assay was performed as previously described with slight modifications. S. aureus was until the OD600 reached 0.3–0.6, washed three times with PBS, and resuspended to 1 × 10^8 CFU/mL. The bacteria (100 µL) were mixed with 50 µL of antimicrobial peptide and incubated at 37 °C for 30 min, with PBS as a control. The supernatant was centrifuged and discarded, the bacteria were resuspended with PI-diluted dye, and stained at 37 °C for 30 min. After washing three times with PBS, the unbound stain was removed, and 10 µL of PBS was taken; an appropriate amount of […] was added onto the slide, the cover glass was observed by fluorescence microscope.

## CC[C@H](C)[C@H](NC(=O)[C@H](CCCNC(=N)N)NC(=O)[C@H](CCC(=O)O)NC(=O)[C@@H](NC(=O)[C@H](CCCCN)NC(=O)[C@H](CCC(=O)O)NC(=O)CNC(=O)[C@H](CC(C)C)NC(=O)[C@H](CCCNC(=N)N)NC(=O)[C@H](CCCNC(=N)N)NC(=O)CNC(=O)[C@H](CCCNC(=N)N)NC(=O)[C@H](CC(=O)O)NC(=O)[C@H](CO)NC(=O)[C@H](CC(C)C)NC(=O)[C@H](Cc1ccccc1)NC(=O)[C@H](CC(=O)O)NC(=O)[C@H](CCCNC(=N)N)NC(=O)[C@H](CC(C)C)NC(=O)[C@H](CCCNC(=N)N)NC(=O)[C@H](CO)NC(=O)[C@H](CC(C)C)NC(=O)[C@H](CC(C)C)NC(=O)CN)[C@@H](C)CC)C(=O)NCC(=O)N[C@@H](CCC(N)=O)C(=O)N[C@@H](CCCCN)C(=O)N[C@H](C(=O)N[C@@H](CCCCN)C(=O)N[C@@H](CC(=O)O)C(=O)N[C@@H](CC(C)C)C(=O)N[C@@H](CO)C(=O)N[C@@H](CCC(=O)O)C(=O)N[C@@H](CCCNC(=N)N)C(=O)N[C@@H](Cc1ccccc1)C(=O)N[C@@H](CCC(N)=O)C(=O)N[C@@H](CO)C(=O)O)[C@@H](C)CC [PMAP-37(F34-R)] (H-GLLSRLRDFLSDRGRRLGEKIERIGQKIKDLSERFQS-OH; N-terminus and C-terminus assumed)
[1]
  inhibitory effect (inhibition zone): inhibited all six bacteria tested
S. aureus [2]; 4, 25, 37, 65 °C
  stability at other temperatures: maintained good stability
S. aureus [2]; 90 °C
  stability at high temperature: partially affected
S. aureus [2]; pH 2, 4, 6, 8 buffers
  stability at other pH: maintained good stability
S. aureus [2]; pH = 10 buffer
  stability in strong base: partially affected
[3]
  efficacy in animal experiments: comparable to that of ceftifol sodium
S. aureus [4]
  nucleotide leakage: increased significantly
S. aureus [5]
  PI staining (membrane integrity): extensive cell death
